Experiments:
[1] = target: T1, insulin-degrading enzyme (IDE) (Homo sapiens, UniProt P14735); assay: Inhibition of / competition with sp6 or sp6BY degradation in S10 extract; format: biochemical; settings: 30 min, 37°C; for stabilization of sp6BY by known IDE-inhibitors: 10 ng sp6BY, 5 μg S10 extract, increasing concentrations, fluorescence, at least three independent experiments (S2 Fig); for stabilization of sp6 by protease inhibitor (initial screen): 100 ng sp6, 5 μg S10 extract, Western blot, 1.3 mM EDTA, 130 μM Bestatin, 600 nM Phosphoramidon
T1 construct: endogenous in cells; host or cells: HeLa cells (cytosolic S10 extract)
Description: (§1) For generation of S10, confluent dishes with HeLa cells were extensively washed and subsequently lysed with a modified S10 buffer (250 mM sucrose, 80 mM KCl, 10 mM Tris pH 7.6, 0.1% (v/v) Triton X-100 [91]). Debris and nuclei were removed by centrifugation at 10.000 × g for 10 min. Protein content was determined by BCA-Assay (Pierce) and aliquots stored at -80°C.
(§2) Reactions were stopped by addition of sample buffer and incubation at 95°C for 5 min. Remaining p6 was detected by Western blotting using an anti-p6 rabbit antiserum. Alternatively, 10 ng of BODIPY FL-labeled sp6 (sp6BY) were used as substrate and detected directly in the polyacrylamide gel by fluorescence scanning. In some experiments the amount of p6 was densitometrically quantified with the software AIDA (Raytest). For the in vitro degradation of amyloid-β 10 ng of Aβ-FITC (abcam) were used analogously to sp6BY. For the in vitro degradation of viral p6, VLPs were pelleted and lysed in IDE enzyme buffer (150 mM NaCl, 50 mM Tris pH 7.4, 0.5% (v/v) Triton X-100). The p6 content was estimated by Western blotting using a dilution series of sp6 with known concentrations. Equivalents of 15 ng were used for digestion experiments and subsequently detected by Western blotting. Experiments carried out with recombinant IDE (Calbiochem) were performed in IDE enzyme buffer.
Bestatin, Chymostatin, E-64, Leupeptin, Pepstatin, Phosphoramidon, Pefabloc SC, EDTA, Aprotinin, Antipain were purchased from Roche as part of a protease inhibitors set and used at the following concentrations: 74 μM Antipain; 130 μM Bestatin; 100 μM Chymostatin; 28 μM E-64; 1 μM Leupeptin; 1 μM Pepstatin; 600 nM Phosphoramidon; 4 mM Pefabloc SC; 1.3 mM EDTA; […]. […] (Phoenix Pharmaceuticals and Tocris), TPEN (Calbiochem), and NEM (Roche) were purchased from companies indicated.

[2] = In vitro degradation in cytosolic S10 HeLa cell extract; format: in vitro ADME; settings: 10 ng sp6BY E0A or vp6 S40F, S14N, K27/33R; 5 μg S10 extract, 37°C; fluorescence or Western blot; three independent experiments (S1B Fig)
Description: as §1
as §2, with “Typically 5 μg S10 were incubated with inhibitor or buffer and 20–100 ng sp6 at 37°C for 30 min. Reactions” for “Reactions”, “buffer. Recombinant FITC-labeled insulin was purchased from Sigma.” for “buffer.”

recombinant IDE (rIDE) = target: T2, recombinant IDE (rIDE) (Rattus norvegicus, UniProt P35559); assay: Inhibition of rIDE-mediated degradation of sp6BY; format: biochemical; settings: 10 ng rIDE, 10 ng sp6BY, 30 min, 37°C; TPEN 1 mM, NEM 1 mM, insulin 100 μg/ml
T2 construct: purchased Calbiochem
Description: Fig 6 IDE is sufficient and required for the in vitro degradation of sp6 and vp6. (A) 10 ng sp6BY were incubated with 5 μg S10 extract from HeLa cells, either untransfected or transfected with control or IDE-specific siRNA, for 0, 10, 30 or 90 min at 37°C. (B) sp6BY was detected by fluorescence emission and quantified. (C) VLP lysates from HEK293T cells were incubated with S10 from siRNA treated cells described in A. Viral proteins were detected as described in Fig 1. (D) Western blot analyses of the S10 extract used in A and C. The membrane was stained with antibodies specific for IDE, HSP70, and β-actin. […] (F) VLP lysates were incubated with 10 ng rIDE for 30 min.
as §2, with “Typically 5 μg S10 were incubated with inhibitor or buffer and 20–100 ng sp6 at 37°C for 30 min. Reactions” for “Reactions”, “buffer. Recombinant FITC-labeled insulin was purchased from Sigma.” for “buffer.”

[3] = cytosolic S10 HeLa cell extract (S10); settings: 37°C, up to 60 min
purified mammalian IDE = settings: cited from earlier work

T1 sequence (P14735 whole entry): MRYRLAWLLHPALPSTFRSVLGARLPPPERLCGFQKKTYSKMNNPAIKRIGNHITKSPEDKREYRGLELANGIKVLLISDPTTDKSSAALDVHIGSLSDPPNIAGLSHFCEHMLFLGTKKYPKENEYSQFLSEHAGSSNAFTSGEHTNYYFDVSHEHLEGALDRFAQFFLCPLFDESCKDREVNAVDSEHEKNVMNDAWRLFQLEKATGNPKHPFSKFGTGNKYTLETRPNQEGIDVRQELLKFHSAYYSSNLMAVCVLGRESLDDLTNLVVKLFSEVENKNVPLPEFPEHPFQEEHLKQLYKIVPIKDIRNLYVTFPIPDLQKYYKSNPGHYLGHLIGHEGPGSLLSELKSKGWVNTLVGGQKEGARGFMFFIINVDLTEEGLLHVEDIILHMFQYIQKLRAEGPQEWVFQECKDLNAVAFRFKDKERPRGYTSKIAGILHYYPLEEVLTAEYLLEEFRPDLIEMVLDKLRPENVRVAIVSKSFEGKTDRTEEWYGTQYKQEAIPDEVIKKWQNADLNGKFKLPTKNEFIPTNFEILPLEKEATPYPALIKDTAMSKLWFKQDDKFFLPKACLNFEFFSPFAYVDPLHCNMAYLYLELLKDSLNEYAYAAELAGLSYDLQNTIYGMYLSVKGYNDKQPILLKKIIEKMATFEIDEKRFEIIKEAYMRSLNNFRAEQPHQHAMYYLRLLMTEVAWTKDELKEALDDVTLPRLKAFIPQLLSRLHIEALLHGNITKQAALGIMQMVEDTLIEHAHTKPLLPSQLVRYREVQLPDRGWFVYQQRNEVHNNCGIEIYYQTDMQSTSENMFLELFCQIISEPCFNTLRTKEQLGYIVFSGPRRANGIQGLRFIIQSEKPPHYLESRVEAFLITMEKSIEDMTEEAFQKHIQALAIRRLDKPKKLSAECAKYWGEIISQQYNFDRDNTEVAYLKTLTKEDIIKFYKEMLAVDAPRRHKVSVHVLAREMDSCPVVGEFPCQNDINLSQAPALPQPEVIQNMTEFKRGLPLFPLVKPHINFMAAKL
T2 sequence (P35559 whole entry): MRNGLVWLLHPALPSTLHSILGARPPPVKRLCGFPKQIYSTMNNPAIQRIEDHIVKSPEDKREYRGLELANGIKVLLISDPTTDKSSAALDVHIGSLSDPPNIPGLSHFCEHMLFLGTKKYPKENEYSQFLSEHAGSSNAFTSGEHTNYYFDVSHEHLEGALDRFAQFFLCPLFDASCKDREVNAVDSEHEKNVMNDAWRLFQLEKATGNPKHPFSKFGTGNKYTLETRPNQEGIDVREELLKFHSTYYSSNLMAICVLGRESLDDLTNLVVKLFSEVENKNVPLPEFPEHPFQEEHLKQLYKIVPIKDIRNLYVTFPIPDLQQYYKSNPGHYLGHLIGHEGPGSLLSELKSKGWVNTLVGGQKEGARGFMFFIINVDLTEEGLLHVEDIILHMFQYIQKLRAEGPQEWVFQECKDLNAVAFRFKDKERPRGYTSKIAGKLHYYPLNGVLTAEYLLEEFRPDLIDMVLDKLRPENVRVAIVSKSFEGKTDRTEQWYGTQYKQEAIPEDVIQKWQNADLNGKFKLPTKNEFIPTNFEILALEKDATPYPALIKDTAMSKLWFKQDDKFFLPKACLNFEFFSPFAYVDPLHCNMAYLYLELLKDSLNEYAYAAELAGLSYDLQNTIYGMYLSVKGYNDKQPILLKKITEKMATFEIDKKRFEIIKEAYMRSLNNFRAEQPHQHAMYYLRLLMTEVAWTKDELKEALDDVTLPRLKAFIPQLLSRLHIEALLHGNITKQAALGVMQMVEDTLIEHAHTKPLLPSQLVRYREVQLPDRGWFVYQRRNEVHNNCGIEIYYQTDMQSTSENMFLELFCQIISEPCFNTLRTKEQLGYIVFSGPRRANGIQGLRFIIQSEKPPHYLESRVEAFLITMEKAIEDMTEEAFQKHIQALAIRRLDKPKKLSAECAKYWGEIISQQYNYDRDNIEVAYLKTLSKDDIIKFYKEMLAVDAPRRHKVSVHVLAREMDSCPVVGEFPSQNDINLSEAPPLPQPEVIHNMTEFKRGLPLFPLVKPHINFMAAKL

Nc1ncnc2c1ncn2[C@@H]1O[C@H](COP(=O)(O)OP(=O)(O)OP(=O)(O)O)[C@@H](O)[C@H]1O [ATP]
stabilization of sp6BY by known IDE-inhibitors [1]: prevented the degradation of p6

CC(C)C[C@H](NC(=O)[C@@H](O)[C@H](N)Cc1ccccc1)C(=O)O [Bestatin]
stabilization of sp6 by protease inhibitor (initial screen) [1]: did not stabilize p6

O=C(O)CN(CCN(CC(=O)O)CC(=O)O)CC(=O)O [EDTA]
stabilization of sp6 by protease inhibitor (initial screen) [1]: could stabilize sp6

CC[C@H](C)[C@H](NC(=O)[C@@H]1CCCN1C(=O)[C@H](CCC(=O)O)NC(=O)[C@H](CCC(N)=O)NC(=O)[C@H](CCCNC(=N)N)NC(=O)[C@H](CCC(N)=O)NC(=O)[C@H](CO)NC(=O)[C@@H]1CCCN1C(=O)[C@@H](NC(=O)[C@@H](NC(=O)[C@@H](NC(=O)[C@H](CCC(=O)O)NC(=O)[C@H](CCC(=O)O)NC(=O)CNC(=O)[C@H](Cc1ccccc1)NC(=O)[C@H](CCCNC(=N)N)NC(=O)[C@H](Cc1ccccc1)NC(=O)[C@H](CO)NC(=O)[C@H](CCC(=O)O)NC(=O)[C@H](CCC(=O)O)NC(=O)[C@@H]1CCCN1C(=O)[C@@H]1CCCN1C(=O)[C@H](C)NC(=O)[C@@H](NC(=O)[C@@H]1CCCN1C(=O)[C@H](CCC(=O)O)NC(=O)[C@@H]1CCCN1C(=O)[C@H](CCCNC(=N)N)NC(=O)[C@H](CO)NC(=O)[C@H](CCC(N)=O)NC(=O)[C@@H](N)CC(C)C)[C@@H](C)O)[C@@H](C)O)[C@@H](C)O)[C@@H](C)O)C(=O)N[C@@H](CC(=O)O)C(=O)N[C@@H](CCCNC(=N)N)C(=O)N[C@@H](CCC(=O)O)C(=O)N[C@@H](CC(C)C)C(=O)N[C@@H](Cc1ccc(O)cc1)C(=O)N1CCC[C@H]1C(=O)N[C@@H](CC(C)C)C(=O)N[C@@H](C)C(=O)N[C@@H](CO)C(=O)N[C@@H](CC(C)C)C(=O)N[C@@H](CCCNC(=N)N)C(=O)N[C@@H](CO)C(=O)N[C@@H](CC(C)C)C(=O)N[C@@H](Cc1ccccc1)C(=O)NCC(=O)N[C@@H](CO)C(=O)N[C@@H](CC(=O)O)C(=O)N1CCC[C@H]1C(=O)N[C@@H](CO)C(=O)N[C@@H](CO)C(=O)N[C@@H](CCC(N)=O)C(=O)O [K27/33R]
degradation efficiency of HIV-1NL4-3 p6 mutants in S10 extract [2]: wt degradation efficiency

CCN1C(=O)C=CC1=O [NEM, N-ethylmaleimide]
stabilization of sp6 in the presence of rIDE (recombinant IDE (rIDE)): stabilized sp6
stabilization of sp6BY by known IDE-inhibitors [1]: prevented the degradation of p6

CC(C)C[C@H](NP(=O)(O)O[C@@H]1O[C@@H](C)[C@H](O)[C@@H](O)[C@H]1O)C(=O)N[C@@H](Cc1c[nH]c2ccccc12)C(=O)O [Phosphoramidon]
stabilization of sp6 by protease inhibitor (initial screen) [1]: failed to stabilize p6

CC[C@H](C)[C@H](NC(=O)[C@@H]1CCCN1C(=O)[C@H](CCC(=O)O)NC(=O)[C@H](CCC(N)=O)NC(=O)[C@H](CCCCN)NC(=O)[C@H](CCC(N)=O)NC(=O)[C@H](CO)NC(=O)[C@@H]1CCCN1C(=O)[C@@H](NC(=O)[C@@H](NC(=O)[C@@H](NC(=O)[C@H](CCC(=O)O)NC(=O)[C@H](CCC(=O)O)NC(=O)CNC(=O)[C@H](Cc1ccccc1)NC(=O)[C@H](CCCNC(=N)N)NC(=O)[C@H](Cc1ccccc1)NC(=O)[C@H](CC(N)=O)NC(=O)[C@H](CCC(=O)O)NC(=O)[C@H](CCC(=O)O)NC(=O)[C@@H]1CCCN1C(=O)[C@@H]1CCCN1C(=O)[C@H](C)NC(=O)[C@@H](NC(=O)[C@@H]1CCCN1C(=O)[C@H](CCC(=O)O)NC(=O)[C@@H]1CCCN1C(=O)[C@H](CCCNC(=N)N)NC(=O)[C@H](CO)NC(=O)[C@H](CCC(N)=O)NC(=O)[C@@H](N)CC(C)C)[C@@H](C)O)[C@@H](C)O)[C@@H](C)O)[C@@H](C)O)C(=O)N[C@@H](CC(=O)O)C(=O)N[C@@H](CCCCN)C(=O)N[C@@H](CCC(=O)O)C(=O)N[C@@H](CC(C)C)C(=O)N[C@@H](Cc1ccc(O)cc1)C(=O)N1CCC[C@H]1C(=O)N[C@@H](CC(C)C)C(=O)N[C@@H](C)C(=O)N[C@@H](CO)C(=O)N[C@@H](CC(C)C)C(=O)N[C@@H](CCCNC(=N)N)C(=O)N[C@@H](CO)C(=O)N[C@@H](CC(C)C)C(=O)N[C@@H](Cc1ccccc1)C(=O)NCC(=O)N[C@@H](CO)C(=O)N[C@@H](CC(=O)O)C(=O)N1CCC[C@H]1C(=O)N[C@@H](CO)C(=O)N[C@@H](CO)C(=O)N[C@@H](CCC(N)=O)C(=O)O [S14N]
degradation efficiency of HIV-1NL4-3 p6 mutants in S10 extract [2]: wt degradation efficiency

CC[C@H](C)[C@H](NC(=O)[C@@H]1CCCN1C(=O)[C@H](CCC(=O)O)NC(=O)[C@H](CCC(N)=O)NC(=O)[C@H](CCCCN)NC(=O)[C@H](CCC(N)=O)NC(=O)[C@H](CO)NC(=O)[C@@H]1CCCN1C(=O)[C@@H](NC(=O)[C@@H](NC(=O)[C@@H](NC(=O)[C@H](CCC(=O)O)NC(=O)[C@H](CCC(=O)O)NC(=O)CNC(=O)[C@H](Cc1ccccc1)NC(=O)[C@H](CCCNC(=N)N)NC(=O)[C@H](Cc1ccccc1)NC(=O)[C@H](CO)NC(=O)[C@H](CCC(=O)O)NC(=O)[C@H](CCC(=O)O)NC(=O)[C@@H]1CCCN1C(=O)[C@@H]1CCCN1C(=O)[C@H](C)NC(=O)[C@@H](NC(=O)[C@@H]1CCCN1C(=O)[C@H](CCC(=O)O)NC(=O)[C@@H]1CCCN1C(=O)[C@H](CCCNC(=N)N)NC(=O)[C@H](CO)NC(=O)[C@H](CCC(N)=O)NC(=O)[C@@H](N)CC(C)C)[C@@H](C)O)[C@@H](C)O)[C@@H](C)O)[C@@H](C)O)C(=O)N[C@@H](CC(=O)O)C(=O)N[C@@H](CCCCN)C(=O)N[C@@H](CCC(=O)O)C(=O)N[C@@H](CC(C)C)C(=O)N[C@@H](Cc1ccc(O)cc1)C(=O)N1CCC[C@H]1C(=O)N[C@@H](CC(C)C)C(=O)N[C@@H](C)C(=O)N[C@@H](Cc1ccccc1)C(=O)N[C@@H](CC(C)C)C(=O)N[C@@H](CCCNC(=N)N)C(=O)N[C@@H](CO)C(=O)N[C@@H](CC(C)C)C(=O)N[C@@H](Cc1ccccc1)C(=O)NCC(=O)N[C@@H](CO)C(=O)N[C@@H](CC(=O)O)C(=O)N1CCC[C@H]1C(=O)N[C@@H](CO)C(=O)N[C@@H](CO)C(=O)N[C@@H](CCC(N)=O)C(=O)O [S40F]
degradation efficiency of HIV-1NL4-3 p6 mutants in S10 extract [2]: wt degradation efficiency

c1ccc(CN(CCN(Cc2ccccn2)Cc2ccccn2)Cc2ccccn2)nc1 [TPEN]
stabilization of sp6 in the presence of rIDE (recombinant IDE (rIDE)): stabilized sp6

Bacitracin
stabilization of sp6BY by known IDE-inhibitors [1]: prevented the degradation of p6

PIQQKSQHNKSVVQETPQTQNLYPDLSEIKKEYNVKEKDQVEDLNLDSLWE
not cleaved [3]: no degradation observed (up to 60 min)

PMAQVHQGLMPTAPPEDPAVDLLKNYMQLGKQQREKQRESREKPYKEVTEDLLHLNSLFGGDQ
not cleaved [3]: no degradation observed (up to 60 min)

PVAQVPQGLTPTAPPVDPAVDLLEKYMQQGKRQREQRERPYKEVTEDLLHLEQGETPYREPPTEDLLHLNSLFGKDQ
not cleaved [3]: no degradation observed (up to 60 min)

amyloid-β [Aβ]
kcat (purified mammalian IDE; purified mammalian IDE): 0.875 s⁻¹
Km (purified mammalian IDE; rounded value): 1.2 µM
